Patent US20230382926A1, “COMPOUNDS AND USES THEREOF” (The University of The West Indies, priority 2022, published 2023)

What was measured:
Test in all cases: Rescue concentration, modified checkerboard MIC adjuvant assay
Assay type in all cases: cell-based
[1] = system: Streptococcus pneumoniae ATCC 49619; settings: S. pneumoniae ATCC 49619
Method: (§1) Reference microorganisms as well as clinical strains used to evaluate the antimicrobial adjuvant properties of SP-6azaBIM 125 and SP-6azaBIM 136 are listed in Table 3. Clinical strains of bacteria were kindly provided by the Faculty of Medical Sciences, UWI, St. Augustine, Trinidad. All bacterial cultures were cryopreserved in 30% glycerol/Brain Heart Infusion (BHI) at −80° C. Cultures were revived on BHI agar (Oxoid Ltd, England) and maintained at 4° C. until needed.
(§2) Prior to each experiment, cultures were streaked onto clean BHI agar plates and incubated at 35° C. for 24 hours. Colonies of the respective cultures were selected and inoculated in phosphate buffer saline (pH 7.5) to a 0.5 McFarland turbidity standard (equivalent to 10^8 CFU mL^−1). For inhibitory studies the bacterial suspensions were diluted 1:100 in cation-adjusted Mueller Hinton Broth (ca-MHB) (Oxoid Ltd, England). Fastidious bacteria including Streptococcus pneumoniae, Haemophilus infuenzae and Clostridium difficile were maintained on BHI agar with 5% defibrinated sheep blood and diluted in ca-MHB with 5% defibrinated sheep blood.
(§3) Antibiotic powders used in this study were purchased from Sigma Aldrich Ltd. (WI, USA). Antibiotic stock solutions were made at 50 mg mL^−1 according to Andrews (2001) and working solutions were prepared 24 h before use and stored at 4° C.
(§4) HCl salts of the of the SP-azaBIM test compounds were prepared prior to testing and stored at 4° C. Working preparations of each compound were made to 1 mg/mL in sterile deionised water.
(§5) The antibiotic adjuvant activity of the SPazaBIMs were evaluated in combination with representative antibiotics (representing 13 antibiotic classes) against the 19 pathogens strains listed in Table 3. To assess the adjuvant properties of the SP-azaBIM molecules, a modified checkerboard minimum inhibitory concentration assay was used. A fixed concentration of the respective antibiotic (susceptible breakpoint concentration) was mixed with a twofold dilution series of the test SP-azaBIM (FIG. 1). This was to determine the concentration of SP-azaBIM needed potentiate the antibiotic at a clinically susceptible breakpoint concentration. Antibiotic susceptible breakpoint concentrations for the respective bacteria were determined using Clinical Laboratory Standards Institute (CLSI) criteria M100 ED31.
(§6) In this study, only those antibiotics to which the bacterial was classed as resistant were included in the adjuvant assays. In this assay we recorded the rescue concentration of the SP-BIM for a respective antibiotic. The rescue concentration was defined as the concentration of the adjuvant that reduces the minimum inhibitory concentration (MIC) of an antibiotic to the susceptibility breakpoint.
(§7) Immediately prior to testing, the respective antibiotic and SP-azaBIM was dissolved in sterile deionised water at 20× the required test concentration. Each microtiter well was then inoculated with 180 μl of bacterial inoculum of 10^6 CFU/ml in ca-MHB, and 10 μl each if the antibiotic and SP-azaBIM was added to the plates. These plates were then incubated at 35° C. for 24 h under aerobic conditions. A similar method was followed for the fastidious pathogens except that they were cultured in ca-MHB with 5% sheep blood and 5% CO2.
(§8) Bacterial growth was visually inspected after the incubation period and the rescue concentration of the test SP-azaBIM was determined as the lowest concentration of the compound needed to reduce bacterial growth by 99.99% at the susceptible breakpoint concentration of the antibiotic. For example, CLSI states that Pseudomonas aeruginosa is susceptible to the Imipenem if the MIC is ≤2 μg mL^−1. If the bacteria can tolerate this concentration in vitro, then the bacteria has an intermediate or absolute resistance toward that antibiotic. […]

[2] = system: Pseudomonas aeruginosa MDR 5805; settings: P. aeruginosa MDR 5805
Method: as §1, §2, §3, §4, §5, §6, §7, §8

[3] = system: Klebsiella pneumoniae ATCC 49472; settings: K. pneumoniae ATCC 49472
Method: as §1, §2, §3, §4, §5, §6, §7, §8

[4] = system: Enterococcus faecalis ATCC 51299; settings: E. faecalis ATCC 51299
Method: as §1, §2, §3, §4, §5, §6, §7, §8

[5] = system: Enterobacter cloacae ATCC BAA-1143; settings: E. cloacae ATCC BAA-1143
Method: as §1, §2, §3, §4, §5, §6, §7, §8

[6] = system: Escherichia coli ATCC 35150; settings: E. coli ATCC 35150
Method: as §1, §2, §3, §4, §5, §6, §7, §8

[7] = system: Staphylococcus aureus ATCC BAA-2312; settings: S. aureus ATCC BAA-2312
Method: as §1, §2, §3, §4, §5, §6, §7, §8

[8] = system: Stenotrophomonas maltophilia MDR 7785; settings: S. maltophilia MDR 7785
Method: as §1, §2, §3, §4, §5, §6, §7, §8

[9] = system: Acinetobacter baumannii clinical isolate 9978; settings: A. baumannii clinical isolate 9978
Method: as §1, §2, §3, §4, §5, §6, §7, §8

[10] = Amox at susceptible breakpoint 8 μg mL^−1
[11] = Col at susceptible breakpoint 2 μg mL^−1
[12] = Gen at susceptible breakpoint 4 μg mL^−1
[13] = Imi at susceptible breakpoint 2 μg mL^−1
[14] = Mero at susceptible breakpoint 2 μg mL^−1
[15] = Pol B at susceptible breakpoint 2 μg mL^−1
[16] = Amp at susceptible breakpoint 8 μg mL^−1
[17] = Col at susceptible breakpoint 8 μg mL^−1
[18] = Imi at susceptible breakpoint 1 μg mL^−1
[19] = Chl at susceptible breakpoint 8 μg mL^−1
[20] = Dox at susceptible breakpoint 4 μg mL^−1
[21] = Tri at susceptible breakpoint 8 μg mL^−1
[22] = Ceph at susceptible breakpoint 8 μg mL^−1
[23] = Cef at susceptible breakpoint 8 μg mL^−1

## Oc1ccc(C(c2c[nH]c3cnccc23)c2c[nH]c3cnccc23)cc1 [SP-6azaBIM 136, 4-(bis(1H-pyrrolo[2,3-c]pyridin-3-yl)methyl)phenol]
[1]; Amox at susceptible breakpoint 2 μg mL^−1
  Rescue concentration, Amox (2): >128 µg/mL
[1]; Ery at susceptible breakpoint 0.25 μg mL^−1
  Rescue concentration, Ery (0.25): >128 µg/mL
[1]; Imi at susceptible breakpoint 0.12 μg mL^−1
  Rescue concentration, Imi (0.12): >128 µg/mL
[2]; [10]
  Rescue concentration, Amox (8): 2 µg/mL
[2]; [11]
  Rescue concentration, Col (2): 4 µg/mL
[2]; [12]
  Rescue concentration, Gen (4): 4 µg/mL
[2]; [13]
  Rescue concentration, Imi (2): 2 µg/mL
[2]; [14]
  Rescue concentration, Mero (2): 2 µg/mL
[2]; [15]
  Rescue concentration, Pol B (2): 4 µg/mL
[3]; [10]
  Rescue concentration, Amox (8): 32 µg/mL
[3]; [16]
  Rescue concentration, Amp (8): 64 µg/mL
[3]; [17]
  Rescue concentration, Col (8): 32 µg/mL
[3]; [18]
  Rescue concentration, Imi (1): 16 µg/mL
[3]; Mero at susceptible breakpoint 1 μg mL^−1
  Rescue concentration, Mero (1): 32 µg/mL
[3]; Pol B at susceptible breakpoint 8 μg mL^−1
  Rescue concentration, Pol B (8): 16 µg/mL
[4]; [16]
  Rescue concentration, Amp (8): >128 µg/mL
[4]; [19]
  Rescue concentration, Chl (8): >128 µg/mL
[4]; [20]
  Rescue concentration, Dox (4): >128 µg/mL
[4]; Ery at susceptible breakpoint 0.5 μg mL^−1
  Rescue concentration, Ery (0.5): >128 µg/mL
[4]; [21]
  Rescue concentration, Tri (8): >128 µg/mL
[4]; Van at susceptible breakpoint 4 μg mL^−1
  Rescue concentration, Van (4): >128 µg/mL
[5]; [16]
  Rescue concentration, Amp (8): 16 µg/mL
[5]; Azi at susceptible breakpoint 16 μg mL^−1
  Rescue concentration, Azi (16): 16 µg/mL
[5]; [22]
  Rescue concentration, Ceph (8): 16 µg/mL
[5]; [19]
  Rescue concentration, Chl (8): 32 µg/mL
[5]; [17]
  Rescue concentration, Col (8): 16 µg/mL
[5]; [20]
  Rescue concentration, Dox (4): 4 µg/mL
[5]; [12]
  Rescue concentration, Gen (4): 8 µg/mL
[5]; [18]
  Rescue concentration, Imi (1): 4 µg/mL
[5]; Tet at susceptible breakpoint 4 μg mL^−1
  Rescue concentration, Tet (4): 4 µg/mL
[6]; [16]
  Rescue concentration, Amp (8): 8 µg/mL
[6]; Cip at susceptible breakpoint 0.25 μg mL^−1
  Rescue concentration, Cip (0.25): 16 µg/mL
[6]; [20]
  Rescue concentration, Dox (4): 4 µg/mL
[6]; [18]
  Rescue concentration, Imi (1): 4 µg/mL
[7]; Azi at susceptible breakpoint 2 μg mL^−1
  Rescue concentration, Azi (2): >128 µg/mL
[7]; [12]
  Rescue concentration, Gen (4): >128 µg/mL
[7]; Pen at susceptible breakpoint 0.12 μg mL^−1
  Rescue concentration, Pen (0.12): >128 µg/mL
[7]; [21]
  Rescue concentration, Tri (8): >128 µg/mL
[7]; Van at susceptible breakpoint 2 μg mL^−1
  Rescue concentration, Van (2): 128 µg/mL
[8]; [23]
  Rescue concentration, Cef (8): 32 µg/mL
[8]; [22]
  Rescue concentration, Ceph (8): 64 µg/mL
[8]; [19]
  Rescue concentration, Chl (8): 16 µg/mL
[8]; Cip at susceptible breakpoint 2 μg mL^−1
  Rescue concentration, Cip (2): 16 µg/mL
[8]; [12]
  Rescue concentration, Gen (4): 64 µg/mL
[8]; [13]
  Rescue concentration, Imi (2): 32 µg/mL
[8]; [14]
  Rescue concentration, Mero (2): 32 µg/mL
[8]; Tri at susceptible breakpoint 2 μg mL^−1
  Rescue concentration, Tri (2): >128 µg/mL
[9]; [10]
  Rescue concentration, Amox (8): 16 µg/mL
[9]; [23]
  Rescue concentration, Cef (8): 32 µg/mL
[9]; [11]
  Rescue concentration, Col (2): 64 µg/mL
[9]; [12]
  Rescue concentration, Gen (4): 16 µg/mL
[9]; [13]
  Rescue concentration, Imi (2): 2 µg/mL
[9]; [14]
  Rescue concentration, Mero (2): 32 µg/mL
[9]; [15]
  Rescue concentration, Pol B (2): 64 µg/mL
